Measured values reported in patent US8455448B2, “Myostatin isoform” (Myostin Therapeutics Pty Ltd, priority 2004, dated 2013).
Where no end group is shown, it is not given here.

Legend:
murine C2C12 myoblasts = experiment: Proliferation assay of C2C12 murine myoblasts (methylene blue, absorbance 655 nm); format: cell-based
Experimental: (§1) Myoblasts were seeded in 96-well tissue culture plates (Nunc, Roskilde, Denmark) at a cell density of 1000 cells per well in 200 μl of Dulbecco's modified Eagle's medium (DMEM, Invitrogen, California) supplemented with foetal bovine serum (FBS, 10% v/v, Invitrogen), penicillin (1×10^5 IU/l, Sigma, St Louis, Mo., USA) and streptomycin (100 mg/l, Sigma) buffered with NaHCO3 containing phenol red (7.22 nmol/l) as a pH indicator, and incubated overnight at 37° C. with 5% CO2. Medium was replaced with DMEM 10% FBS test medium containing 0, 0.001, 0.003, 0.01, 0.03, 0.1, 0.3, 1, 3 or 10 μg/ml oMSV65 in a semi-random arrangement of eight replicates (n=8) for each test medium. Plates were incubated at 37° C. with 5% CO2 for 72 hours, and then the medium was removed. The wells were washed with 200 μl of phosphate buffered saline (PBS, Oxoid, UK) and fixed with 100 μl of 10% formaldehyde, 0.9% NaCl solution for at least one hour. The fixative was then removed and 100 μl of 1% methylene blue stain in 0.01 M borate buffer (pH 8.5) was added to each well and incubated for 30 min at room temperature. Excess stain was removed by four sequential washes in borate buffer. Methylene blue was eluted from the cells by the addition of 100 μl 1:1 (v/v) ethanol/0.1 HCl. The plates were gently shaken and the absorbance was measured at 655 nm using a microplate photometer (FIGS. 3a and 3b).
as §1, with “0,” for “0, 0.001, 0.003,”, “0.01,” for “0.01, 0.03,”, “1” for “0.3, 1, 3”, “oMSV47” for “oMSV65”, “60” for “72”, “(FIG. 9).” for “(FIGS. 3a and 3b).”
Myoblasts were seeded in 96-well tissue culture plates (Nunc, Roskilde, Denmark) at a cell density of 1000 cells per well in […] of Dulbecco's modified Eagle's medium (DMEM, Invitrogen, California) supplemented with foetal bovine serum (FBS, 10% v/v, Invitrogen), penicillin (1×10^5 IU/l, Sigma, St Louis, Mo., USA) and streptomycin (100 mg/l, Sigma) buffered with NaHCO3 containing phenol red (7.22 nmol/l) as a pH indicator, and incubated overnight at 37° C. with 5% CO2. Medium was replaced with DMEM 2.5% FBS test medium containing 0, 0.01, 0.1, 1, 5 or 10 μg/ml of the respective peptides in a semi-random arrangement of eight replicates (n=8) for each test medium. Plates were incubated at 37° C. with 5% CO2 for 80 hours, and then the medium was removed. The wells were washed with 200 μl of phosphate buffered saline (PBS, Oxoid, UK) and fixed with 100 μl of 10% formaldehyde, 0.9% NaCl solution for at least one hour. The fixative was then removed and 100 μl of 1% methylene blue stain in 0.01 M borate buffer (pH 8.5) was added to each well and incubated for 30 min at room temperature. Excess stain was removed by four sequential washes in borate buffer. Methylene blue was eluted from the cells by the addition of 100 μl 1:1 (v/v) ethanol/0.1 HCl. […]

[1] = test system: human skeletal muscle myoblasts; experiment: Proliferation assay of human primary myoblasts (methylene blue); format: cell-based
Experimental: (§2) Human skeletal muscle myoblasts (Cambrex, Australia) were seeded in 96-well tissue culture plates (Nunc, Roskilde, Denmark) at a cell density of 2000 cells per well in 200 μl of Skeletal Muscle Basal Medium (Cambrex, Australia) supplemented with foetal bovine serum (FBS, 10% v/v, Cambrex, Australia), and incubated overnight at 37° C. with 5% CO2. The medium was replaced with Dulbecco's modified Eagle's medium (DMEM, Invitrogen, California) supplemented with 5% foetal bovine serum (FBS, Invitrogen, California), penicillin (1×10^5 IU/l, Sigma, St Louis, Mo., USA) and streptomycin (100 mg/l, Sigma) buffered with NaHCO3 containing phenol red (7.22 nmol/l) as a pH indicator with 0, 0.1, 1, 5 and 10 μg/ml rhMSV38 or roMSV47 protein in a semi-random arrangement of eight replicates (n=8) for each test medium. Plates were incubated at 37° C. with 5% CO2 for 96 hours, and then the medium was removed. The wells were washed with 200 μl of phosphate buffered saline (PBS, Oxoid, UK) buffer and fixed with 100 μl of 10% formaldehyde, 0.9% NaCl solution for at least one hour. The fixative was then removed and 100 μl of 1% methylene blue stain in 0.01 M borate buffer (pH 8.5) was added to each well and incubated for 30 min at room temperature. Excess stain was removed by four sequential washes in borate buffer. Methylene blue was eluted from the cells by the addition of 100 μl 1:1 (v/v) ethanol/0.1 HCl. The plates were gently shaken and the absorbance was measured at 655 nm using a microplate photometer (VersaMax, Molecular Devices, CA).
Human skeletal muscle myoblasts (Cambrex, Australia) were seeded in 96-well tissue culture plates (Nunc, Roskilde, Denmark) at a cell density of 2000 cells per well in 200 μl of Skeletal Muscle Basal Medium (Cambrex, Australia) supplemented with foetal bovine serum (FBS, 10% v/v, Cambrex, Australia), and incubated overnight at 37° C. with 5% CO2. The medium was replaced with Dulbecco's modified Eagle's medium (DMEM, Invitrogen, California) supplemented with 5% foetal bovine serum (FBS, Invitrogen, California), penicillin (1×10^5 IU/l, Sigma, St Louis, Mo., USA) and streptomycin (100 mg/l, Sigma) buffered with NaHCO3 containing phenol red (7.22 nmol/l) as a pH indicator with no added protein, 1.5 or 3.0 μg/ml recombinant bovine mature myostatin alone and with combination of 0.3, 1, 3, 10 molar ratio of rhMSV38 to myostatin, and the same amounts of rhMSV38 without myostatin in a semi-random arrangement of eight replicates (n=8) for each test medium. Plates were incubated at 37° C. with 5% CO2 for 48 hours, and then the medium was removed. […] The plates were gently shaken and the absorbance was measured at 655 nm using a microplate photometer (VersaMax, Molecular Devices, CA).

myostatin = biological target: T1, myostatin (Bos taurus, UniProt O18836); experiment: rhMSV38/mature myostatin competition in human primary myoblast proliferation assay; format: cell-based, bovine; conditions: FIG. 13
T1 sequence (O18836 267-375): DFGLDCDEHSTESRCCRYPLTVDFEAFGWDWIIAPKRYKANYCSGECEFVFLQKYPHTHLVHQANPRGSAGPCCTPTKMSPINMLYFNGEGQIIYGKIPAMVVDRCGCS
Experimental: as §2, with “with no added protein, 1.5 or 3.0 μg/ml recombinant bovine mature myostatin alone and with combination of 0.3,” for “with 0, 0.1,”, “1, 3, 10 molar ratio of rhMSV38 to myostatin,” for “1, 5”, “and the same amounts of” for “and 10 μg/ml”, “rhMSV38 without myostatin” for “rhMSV38 or roMSV47 protein”, “for 48” for “for 96”

Row | Substance | proliferation of murine C2C12 myoblasts (murine C2C12 myoblasts; 0-10 μg/ml, DMEM 2.5% FBS, 80 h, FIG. 12A and FIG. 17) | proliferation of human myoblasts ([1]; 0-10 μg/ml, 96 h, FIG. 12B) | proliferation of human primary myoblasts ([1]; rhMSV38 without myostatin, 48 h, FIG. 13) | overcoming the inhibitory effect of myostatin on proliferation of human myoblasts (myostatin; 1.5 μg/ml Mstn, 48 h) | antagonism of myostatin, proliferation relative to controls (myostatin; 1:10 molar ratio of myostatin to rhMSV38, 48 h) | molar ratio rhMSV38:myostatin at which restoration was achieved (myostatin; double the concentration of myostatin (3 μg/ml Mstn), 48 h) | myoblast proliferation under myostatin (murine C2C12 myoblasts; 1.5 μg/ml myostatin, C2C12, FIG. 9) | proliferation of human myoblasts under myostatin ([1]; 1.5 or 3 μg/ml Mstn, 48 h, FIG. 13)
1 | rhMSV38: recombinant human MSV38 expressed in E. coli (VHFPTPPNEEWIFFNVRRIIFLEVGFQFCSILGETALS; not fully specified) | stimulate myoblast proliferation | stimulate myoblast proliferation | stimulate proliferation of human primary myoblasts in a dose dependent manner | able to overcome the inhibitory effect of myostatin | increases proliferation beyond that of controls | 1 × molar ratio | – | –
2 | myostatin: recombinant bovine mature myostatin, negative regulator of muscle growth [reference compound] | – | – | – | – | – | – | inhibited myoblast proliferation | inhibitory effect
